# Results from PubChem BioAssay (NCI).
#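 1) Cells in 96-well plates. 2) Compound, 48 h, 5 concentrations. 3) Linear interpolation between surrounding doses. 4) Unreached endpoint = highest concentration. Abbreviation: GI50, concentration required for 50% inhibition of growth. At the TGI there is no net growth.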
# What was measured:
# Test in all cases: inhibition of tumour cell growth, NCI panel, 48 h
# 786-0 renal = test system: 786-0 renal
# A498 renal = test system: A498 renal
# A549 NSCLC = test system: A549 NSCLC
# BT-549 breast = test system: BT-549 breast
# COLO 205 colon = test system: COLO 205 colon
# DU-145 prostate = test system: DU-145 prostate
# HCC-2998 colon = test system: HCC-2998 colon
# HCT-116 colon = test system: HCT-116 colon
# HCT-15 colon = test system: HCT-15 colon
# HL-60(TB) leukemia = test system: HL-60(TB) leukemia
# HOP-62 NSCLC = test system: HOP-62 NSCLC
# HOP-92 NSCLC = test system: HOP-92 NSCLC
# IGROV1 ovarian = test system: IGROV1 ovarian
# K-562 leukemia = test system: K-562 leukemia
# KM12 colon = test system: KM12 colon
# LOX IMVI melanoma = test system: LOX IMVI melanoma
# M14 melanoma = test system: M14 melanoma
# MCF7 breast = test system: MCF7 breast
# MDA-MB-231 breast = test system: MDA-MB-231 breast
# MDA-MB-468 breast = test system: MDA-MB-468 breast
# MOLT-4 leukemia = test system: MOLT-4 leukemia
# NCI-H226 lung = test system: NCI-H226 lung
# NCI-H23 lung = test system: NCI-H23 lung
# NCI-H522 lung = test system: NCI-H522 lung
# NCI/ADR-RES ovarian = test system: NCI/ADR-RES ovarian
# OVCAR-3 ovarian = test system: OVCAR-3 ovarian
# OVCAR-5 ovarian = test system: OVCAR-5 ovarian
# OVCAR-8 ovarian = test system: OVCAR-8 ovarian
# PC-3 prostate = test system: PC-3 prostate
# RXF 393 renal = test system: RXF 393 renal
# SF-295 CNS = test system: SF-295 CNS
# SF-539 CNS = test system: SF-539 CNS
# SK-MEL-2 melanoma = test system: SK-MEL-2 melanoma
# SK-MEL-28 melanoma = test system: SK-MEL-28 melanoma
# SK-MEL-5 melanoma = test system: SK-MEL-5 melanoma
# SK-OV-3 ovarian = test system: SK-OV-3 ovarian
# SN12C renal = test system: SN12C renal
# SNB-19 CNS = test system: SNB-19 CNS
# SNB-75 CNS = test system: SNB-75 CNS
# SR leukemia = test system: SR leukemia
# T-47D breast = test system: T-47D breast
# TK-10 renal = test system: TK-10 renal
# U251 CNS = test system: U251 CNS
# UACC-257 melanoma = test system: UACC-257 melanoma
# UACC-62 melanoma = test system: UACC-62 melanoma
structure (smiles),measurement,setting,value
Nc1nn2c(-c3cc4cc(Br)ccc4oc3=O)ccnc2c1N=Nc1ccc(Br)cc1,GI50,786-0 renal,1760 nM
same,TGI,786-0 renal,3.35 µM
same,GI50,A498 renal,1810 nM
same,TGI,A498 renal,3.92 µM
same,GI50,A549 NSCLC,2420 nM
same,TGI,A549 NSCLC,6.86 µM
same,GI50,BT-549 breast,2940 nM
same,TGI,BT-549 breast,8.72 µM
same,GI50,COLO 205 colon,3.34 µM
same,TGI,COLO 205 colon,> 100 µM
same,GI50,DU-145 prostate,3.24 µM
same,TGI,DU-145 prostate,> 100 µM
same,GI50,HCC-2998 colon,3.74 µM
same,TGI,HCC-2998 colon,> 100 µM
same,GI50,HCT-116 colon,1750 nM
same,TGI,HCT-116 colon,3.44 µM
same,GI50,HCT-15 colon,2580 nM
same,TGI,HCT-15 colon,8.23 µM
same,GI50,HL-60(TB) leukemia,> 100 µM
same,TGI,HL-60(TB) leukemia,> 100 µM
same,GI50,HOP-62 NSCLC,1990 nM
same,TGI,HOP-62 NSCLC,4.16 µM
same,GI50,HOP-92 NSCLC,2000 nM
same,TGI,HOP-92 NSCLC,4.61 µM
same,GI50,IGROV1 ovarian,2720 nM
same,TGI,IGROV1 ovarian,8.76 µM
same,GI50,K-562 leukemia,3.28 µM
same,TGI,K-562 leukemia,> 100 µM
same,GI50,KM12 colon,3.76 µM
same,TGI,KM12 colon,> 100 µM
same,GI50,LOX IMVI melanoma,2090 nM
same,TGI,LOX IMVI melanoma,4.46 µM
same,GI50,M14 melanoma,3.06 µM
same,TGI,M14 melanoma,> 100 µM
same,GI50,MCF7 breast,2890 nM
same,TGI,MCF7 breast,10.1 µM
same,GI50,MDA-MB-231 breast,1730 nM
same,TGI,MDA-MB-231 breast,3.4 µM
same,GI50,MDA-MB-468 breast,2040 nM
same,TGI,MDA-MB-468 breast,5.47 µM
same,GI50,MOLT-4 leukemia,> 100 µM
same,TGI,MOLT-4 leukemia,> 100 µM
same,GI50,NCI-H226 lung,1960 nM
same,TGI,NCI-H226 lung,4.58 µM
same,GI50,NCI-H23 lung,2060 nM
same,TGI,NCI-H23 lung,4.4 µM
same,GI50,NCI-H522 lung,2200 nM
same,TGI,NCI-H522 lung,6.55 µM
same,GI50,NCI/ADR-RES ovarian,2220 nM
same,TGI,NCI/ADR-RES ovarian,5.01 µM
same,GI50,OVCAR-3 ovarian,2330 nM
same,TGI,OVCAR-3 ovarian,6.37 µM
same,GI50,OVCAR-5 ovarian,2110 nM
same,TGI,OVCAR-5 ovarian,5.21 µM
same,GI50,OVCAR-8 ovarian,2810 nM
same,TGI,OVCAR-8 ovarian,9.79 µM
same,GI50,PC-3 prostate,1990 nM
same,TGI,PC-3 prostate,5.09 µM
same,GI50,RXF 393 renal,2250 nM
same,TGI,RXF 393 renal,5.37 µM
same,GI50,SF-295 CNS,1860 nM
same,TGI,SF-295 CNS,4.01 µM
same,GI50,SF-539 CNS,1730 nM
same,TGI,SF-539 CNS,3.13 µM
same,GI50,SK-MEL-2 melanoma,3.68 µM
same,TGI,SK-MEL-2 melanoma,17.1 µM
same,GI50,SK-MEL-28 melanoma,2180 nM
same,TGI,SK-MEL-28 melanoma,4.93 µM
same,GI50,SK-MEL-5 melanoma,3.25 µM
same,TGI,SK-MEL-5 melanoma,> 100 µM
same,GI50,SK-OV-3 ovarian,2620 nM
same,TGI,SK-OV-3 ovarian,6.61 µM
same,GI50,SN12C renal,1940 nM
same,TGI,SN12C renal,3.87 µM
same,GI50,SNB-19 CNS,2840 nM
same,TGI,SNB-19 CNS,10.9 µM
same,GI50,SNB-75 CNS,1810 nM
same,TGI,SNB-75 CNS,4.62 µM
same,GI50,SR leukemia,5.12 µM
same,TGI,SR leukemia,> 100 µM
same,GI50,T-47D breast,2290 nM
same,TGI,T-47D breast,6.8 µM
same,GI50,TK-10 renal,2340 nM
same,TGI,TK-10 renal,5.08 µM
same,GI50,U251 CNS,2140 nM
same,TGI,U251 CNS,5.25 µM
same,GI50,UACC-257 melanoma,3.06 µM
same,TGI,UACC-257 melanoma,> 100 µM
same,GI50,UACC-62 melanoma,3.24 µM
same,TGI,UACC-62 melanoma,> 100 µM
